Source: patent US20070092444A1, “Inhibition of inward sodium currents in cancer” (priority 2003, published 2007)

Key:
[1] = test system: SKMG, U373, and U251 glioma cell lines; assay: MTT Cell Proliferation Assay, three GBM cell lines; assay type: cell-based, human; details: drug concentrations between 10-100 μM
Procedure: Cells were plated in 96-well plates at 1000, 4000, and 2000 cells/well for SK-MG, U373, and U251 cells, respectively. Drug was added at specified concentration on day 3 after plating (at the beginning of log phase of growth).
(§1) If the Na^+ conductance seen in high-grade glioma cells was required or linked to the high rate of cell growth, inhibition of the pathway should result in inhibition of cell growth and/or cell death. […] However, benzamil is ineffective in inhibiting Na^+/H^+ exchange in glial cells (73), yet still can inhibit proliferation in this assay. […] Therefore, inhibition of the inward Na^+ current results in inhibition and/or stoppage of cell growth. These observations establish the importance of this pathway in tumor cell biology.

U87-MG cells = assay: Transwell Migration Assay, U87-MG cells; assay type: cell-based, human; details: concentration-dependent
U87-MG and SK-MG cells = assay: [^3H]-thymidine incorporation; assay type: cell-based, human; details: same concentration range (10-100 μM)
Text: as §1

[2] = Activity of tyrosine-extended PcTX1 compared with unmodified PcTX1
ASIC1+ASIC2+γ-hENaC = target: T1, ASIC1+ASIC2+γ-hENaC (Homo sapiens, UniProt P51170+P78348+Q16515); assay: ASIC1+ASIC2+γ-hENaC in planar lipid bilayers; assay type: biochemical; details: 25 μM, cis bathing solution; γ-hENaC co-expressed with ASIC1/2
T1 construct: made in house; host or cells: Xenopus oocytes (membrane vesicles)
Procedure: FIGS. 14A and B show the effect of syntaxin 1A on ASIC1+ASIC2 (FIG. 14A) and ASIC1+ASIC2+γ-hENaC (FIG. 14B) in planar lipid bilayers. The holding potential was +100 mV and records were filtered at 200 Hz.
The effect of syntaxin 1A on constitutive amiloride-sensitive inward Na^+ current activity in planar lipid bilayers was examined (FIGS. 14A and B). For these experiments, membrane vesicles were prepared from oocytes that were previously injected with cRNA encoding both ASIC1 and ASIC2±γ-hENaC. […] Syntaxin 1A was then added as a GST fusion protein to the cis (or cytoplasmic) bathing solution. […] The same results were found in oocyte expression studies (FIG. 15).

T1 sequence (Q16515 whole entry): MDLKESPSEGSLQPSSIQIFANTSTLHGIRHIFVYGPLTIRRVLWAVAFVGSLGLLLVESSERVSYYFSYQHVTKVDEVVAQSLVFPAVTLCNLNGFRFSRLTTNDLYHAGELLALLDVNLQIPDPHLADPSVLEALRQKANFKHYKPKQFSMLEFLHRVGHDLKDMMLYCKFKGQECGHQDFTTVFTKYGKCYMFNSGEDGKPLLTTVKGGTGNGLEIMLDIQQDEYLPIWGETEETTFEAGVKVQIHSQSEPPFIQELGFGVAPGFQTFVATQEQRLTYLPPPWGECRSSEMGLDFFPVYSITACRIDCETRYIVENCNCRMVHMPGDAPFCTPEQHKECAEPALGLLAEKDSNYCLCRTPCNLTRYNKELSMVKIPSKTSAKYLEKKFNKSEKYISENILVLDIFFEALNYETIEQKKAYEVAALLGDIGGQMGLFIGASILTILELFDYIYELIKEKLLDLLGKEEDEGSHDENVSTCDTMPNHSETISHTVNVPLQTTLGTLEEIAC
T1 sequence (P78348 whole entry): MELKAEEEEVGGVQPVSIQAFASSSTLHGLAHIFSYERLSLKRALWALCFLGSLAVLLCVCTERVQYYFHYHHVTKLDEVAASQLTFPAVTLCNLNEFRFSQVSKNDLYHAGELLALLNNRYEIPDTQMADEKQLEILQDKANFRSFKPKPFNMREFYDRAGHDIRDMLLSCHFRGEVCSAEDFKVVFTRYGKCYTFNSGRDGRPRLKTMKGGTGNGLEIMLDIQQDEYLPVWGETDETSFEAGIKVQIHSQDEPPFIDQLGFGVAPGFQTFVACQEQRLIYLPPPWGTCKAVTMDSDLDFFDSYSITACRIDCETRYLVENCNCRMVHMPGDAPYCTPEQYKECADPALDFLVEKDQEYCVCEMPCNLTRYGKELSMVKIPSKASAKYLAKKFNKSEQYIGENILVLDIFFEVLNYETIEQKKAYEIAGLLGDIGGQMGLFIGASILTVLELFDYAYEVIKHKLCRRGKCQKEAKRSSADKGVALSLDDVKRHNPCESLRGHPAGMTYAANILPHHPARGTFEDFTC
T1 sequence (P51170 whole entry): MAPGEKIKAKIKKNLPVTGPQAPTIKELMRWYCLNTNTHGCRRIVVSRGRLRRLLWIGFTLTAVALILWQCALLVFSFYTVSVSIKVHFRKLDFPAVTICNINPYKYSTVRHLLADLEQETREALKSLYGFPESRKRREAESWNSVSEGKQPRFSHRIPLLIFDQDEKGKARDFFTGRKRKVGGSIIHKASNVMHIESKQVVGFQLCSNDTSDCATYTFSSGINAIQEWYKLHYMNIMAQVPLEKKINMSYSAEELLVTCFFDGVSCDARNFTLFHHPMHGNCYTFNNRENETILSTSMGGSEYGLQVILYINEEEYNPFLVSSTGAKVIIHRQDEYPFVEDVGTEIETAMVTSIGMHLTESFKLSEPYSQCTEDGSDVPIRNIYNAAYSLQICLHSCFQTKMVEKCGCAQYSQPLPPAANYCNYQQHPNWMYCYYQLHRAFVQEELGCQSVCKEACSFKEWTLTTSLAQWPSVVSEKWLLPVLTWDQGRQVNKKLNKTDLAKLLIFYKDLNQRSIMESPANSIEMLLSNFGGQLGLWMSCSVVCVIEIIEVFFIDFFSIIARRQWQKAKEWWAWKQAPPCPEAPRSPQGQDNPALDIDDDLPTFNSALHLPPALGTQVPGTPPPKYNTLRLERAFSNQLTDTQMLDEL

NC(=Nc1ccccc1)NC(=O)c1nc(Cl)c(N)nc1N [phenamil]
relative rate of proliferation [1]: significantly inhibited

N=C(N)NC(=O)c1ncc(N)nc1N [N-amidino-3,5-diamino-pyrazinecarboxamide]
Transwell migration (U87-MG cells): did not
[^3H]-thymidine incorporation (U87-MG and SK-MG cells): did not affect

SEQ ID NO. 2: PcTX1 with a tyrosine residue or other residue at one end to aid linking to the tag protein (EDCIPKWKGCVNRHGDCCEGLECWKRRRSFEVCVPKTPKTY; listed as Psalmopoeus cambridgei)
activity relative to unmodified PcTX1 [2]: identical to the unmodified PcTX1 sequence

B1: syntaxin 3: syntaxin family member used as specificity control (protein, UniProt Q13277 1-289, looked up)
Syntaxin-3: MKDRLEQLKAKQLTQDDDTDAVEIAIDNTAFMDEFFSEIEETRLNIDKISEHVEEAKKLYSIILSAPIPEPKTKDDLEQLTTEIKKRANNVRNKLKSMEKHIEEDEVRSSADLRIRKSQHSVLSRKFVEVMTKYNEAQVDFRERSKGRIQRQLEITGKKTTDEELEEMLESGNPAIFTSGIIDSQISKQALSEIEGRHKDIVRLESSIKELHDMFMDIAMLVENQGEMLDNIELNVMHTVDHVEKARDETKKAVKYQSQARKKLIIIIVLVVVLLGILALIIGLSVGLN
inhibition of channel Po (ASIC1+ASIC2+γ-hENaC): without effect
